Data from US7374894B2, “Methods of identifying compounds that modulate IL-4 receptor-mediated IgE synthesis utilizing a chloride intracellular channel 1 protein” (Rigel Pharmaceuticals, Inc., priority 2002, dated 2008).

How the values were obtained:
[1] = test system: IL-4 induced germline ε transcription; assay: Re-infection assay in naïve A5T4 reporter cells (BFP-/BFP+ GFP FACS); type: cell-based, human; details: for functional category of mutant as compared to wild type peptide, based on reporter ratio: % change calculated after subtracting 1.0 from the individual ratios; for Reporter Ratio: screening in the A5T4 reporter line, DL03 wt and double-residue mutants
Procedure: The ability of peptide DL03 wt (SEQ ID NO:1) to inhibit germline ε transcription was confirmed in naïve cells. Briefly, Phoenix cells were transfected with a retroviral vector encoding a BFP-DL03 wt (SEQ ID NO:1) peptide fusion as described in WO 99/58663 and WO 97/27213. Naïve A5T4 cells were infected with the resultant virions and grown for 3 days. The infected cells were stimulated with IL-4 (60 U/mL) and, after 3 days, the cells were assessed by FACS for BFP and GFP. […] The BFP fluorescence data corresponding to the BFP^+ and BFP^− populations are provided in Panel A. The GFP fluorescence data corresponding to the BFP^+ and BFP^− populations are presented in Panel B. The reporter ratio for this purpose is determined as the geometric mean of the GFP fluorescence of the BFP^− population divided by the geometric mean of the GFP fluorescence of the BFP^+ population as presented in panel C. The reporter ratio for the DL03 in this re-infection assay was 1.50.
A collection of DL03 mutants was generated by replacing double amino acid residues in the sequence of DL03 wt (SEQ ID NO:1) with a different amino acid, typically an alanine, as described in copending application Ser. No. 10/095,659. The functional profiles for the mutants derived from DL03 wt (SEQ ID NO:1) was obtained by constructing and screening for activity in the A5T4 reporter cell line in the manner described above. The activity of each mutant at the germline ε promoter is reflected in the reporter ratio as described above. The reporter ratios were the functional values that were used to develop the functional profiles.
Comparison of the interaction and functional profiles was performed by categorizing the mutants of DL03 based on the functional and interaction assays. Based on the reporter ratio, described in panel C of FIG. 4, each mutant was categorized into one of four functional categories: (1) reduction of function (ROF); (2) loss of function (LOF); (3) increase of function (IOF) or (4) functionally neutral (N) as compared to the activity of the wild type peptide, here DL03 wt (SEQ ID NO:1). As mentioned previously, cells expressing a peptide that inhibits germline ε transcription have reporter ratios of ≧1.1. Cell expressing a loss of function (LOF) mutant have a reporter ratio of […]. […] Functionally neutral mutants have reporter ratios that fall within ±50% of that of the DL03 wt (SEQ ID NO:1). The % increase or decrease in reporter ratio is calculated after subtracting 1.0 from the individual ratios. Using these criteria, peptide DL03IL (SEQ ID NO:2) and peptide DL03LA (SEQ ID NO:4) were designated as ROF mutants, peptide DL03KP (SEQ ID NO:3) was designated as a IOF mutant, peptides DL03TS (SEQ ID NO:5), DL03GA (SEQ ID NO:6), DL03TT (SEQ ID NO:7), DL03AS (SEQ ID NO:8), and DL03MT (SEQ ID NO:9) were designated as neutral. No LOF mutant were found for the DL03 clone.

human CLIC1 (hCLIC1) = molecular target: T1, human CLIC1 (hCLIC1) (Homo sapiens, UniProt O00299); assay: β-galactosidase yeast two hybrid (YTH) interaction assay; type: binding
T1 construct: expressed in transfected cells; prey cDNA from the A5T4 reporter line (derived from BJAB B-cells)
Procedure: Potential binding partners for peptide DL03 wt (SEQ ID: 1) were identified in a β-galactosidase yeast two-hybrid (YTH) assay using peptide DL03 wt (SEQ ID: 1) as bait and a cDNA library constructed from the A5T4 reporter cell line as prey. Binding was assessed by β-galactosidase quantification using BetaFluor (Novagen) as a substrate. A negative interaction control (no cDNA fused downstream of the GAL4 activation domain sequence) was also run. A general outline of the YTH assay is illustrated in FIG. 5A. Following clustering, filtering to remove non-specific bait hits (e.g., GFP and BFP), singletons and clusters recognized by 10 or more cDNA baits (based upon historical YTH assays), and prioritization, 22 prey clones were identified as hits.
Potential targets identified in the YTH assay were reconfirmed as generally outlined in FIG. 6. The cDNA clones identified as hits in the YTH assay were purified and rescreened for interaction with the DL03 wt (SEQ ID NO:1) peptide in a YTH assay. The hit clones were also screened in a control assay for interaction with the BFP using a vector (pGBKT7) that contained only the BFP and not the DL03 peptide. At this stage, 12 putative target clones remained.
The interaction of DL03 wt (SEQ ID NO:1) peptide and its mutants with the clones identified as potential targets for the peptide DL03 wt (SEQ ID NO:1) was then quantified in a β-galactosidase YTH assay. The YTH assay was performed in the manner described above. A general outline of this YTH assay is illustrated in FIG. 5B. For each clone tested, an interaction profile was developed by comparing the β-galactosidase activity of each mutant to that of the wild type peptide as described above.
The interaction of these IOF and ROF mutants with different polypeptides encoded by the putative target clones were quantified using the YTH assay described above. Based on the YTH assay, for each putative target, the mutants were categorized into the following four interaction categories: (1) reduction of interaction (ROI); (2) loss of interaction (LOI); (3) increase of interaction (IOI); and (4) interactionally neutral (N), by assessing the binding affinity ratio of the mutant peptide and the wild type peptide (β-gal activity of mutant/wild type) to the putative target. For the YTH interaction assay mutants DL03IL (SEQ ID NO:2), DL03KP (SEQ ID NO:3), DL03LA (SEQ ID NO:4), as well as originally identified peptide DL03 wt (SEQ ID NO:1) were used.
Based on these functional and interaction categorizations, graphic profile representations for each potential target polypeptide were obtained using a weighted categorization process as depicted in FIG. 9. […]

germline α promoter = assay: TAQMAN assay of endogenous germline α transcription in ST486 cells stimulated with TGF-β; type: cell-based; details: TGF-β 40 ng/ml, average of 3 values, p=0.3228
Procedure: The assay was similar to that described in the immediately preceding section, except that ST486 cells (ATCC # CRL-1647) engineered to express the tetracycline-regulated transactivator were infected and the infected cells were stimulated with TGF-β (40 ng/ml; Peprotech). The primers and probe, which are specific for the transcription product driven by the ST486 endogenous α promoter, were as follows (the probe was labeled at the 5′-end with Fam and at the 3′-end with Tamra): […]

Substance	functional category of mutant as compared to wild type peptide, based on reporter ratio [1]	Reporter Ratio [1]	binding to human CLIC1 in yeast two hybrid interaction assay (human CLIC1 (hCLIC1))	endogenous α inhibition ratio (germline α promoter)
LYTS I LLHGAAAASMTKPLA (LYTSILLHGAAAASMTKPLA; peptide generated from combinatorial library) [DL03TT, double-residue mutant of DL03 wt]	neutral	1.43	–	–
LYTS I LLHARTTASMTKPLA (LYTSILLHARTTASMTKPLA; peptide generated from combinatorial library) [DL03GA, double-residue mutant of DL03 wt]	neutral	1.67	–	–
LYTSAALHGATTASMTKPLA (Peptide generated by a combinatorial library) [DL03IL, double-residue mutant of DL03 wt]	–	–	found to bind	–
LYTS I LLHGATTRAMTKPLA (LYTSILLHGATTRAMTKPLA; Peptide generated from combinatorial library) [DL03AS, double-residue mutant of DL03 wt]	neutral	1.57	–	–
LYAAI LLHGATTASMTKPLA (LYAAILLHGATTASMTKPLA; peptide generated from combinatorial library) [DL03TS, double-residue mutant of DL03 wt]	neutral	1.49	–	–
LYTS I LLHGATTASMTKPLA (LYTSILLHGATTASMTKPLA; peptide generated from a combinatorial library) [DL03wt, peptide 20-mer identified from a retroviral random library, expressed in cells as BFP-peptide fusion]	–	–	found to bind	0.66
LYTS I LLHGATTASMTAALA (LYTSILLHGATTASMTAALA; peptide generated from combinatorial library) [DL03KP, double-residue mutant of DL03 wt]	IOF (An increase of function mutant (IOF) shows a >50% increase in reporter ratio)	–	found to bind	–
LYTS I LLHGATTASMTKPAR (LYTSILLHGATTASMTKPAR; peptide generated from combinatorial library) [DL03LA, double-residue mutant of DL03 wt]	–	–	found to bind	–
LYTS I LLHGATTASAAKPLA (LYTSILLHGATTASAAKPLA; Peptide generated from combinatorial library) [DL03MT, double-residue mutant of DL03 wt]	neutral	1.30	–	–
